Assay results from PubChem BioAssay (NCI).
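Interpolation was linear, between the two tested concentrations surrounding the appropriate level; five concentrations were tested over 48 hours in 96-well plates. GI50 marks 50% less growth. The concentration for full growth arrest is given as TGI.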

Assays:
Test in all cases: NCI-60 cell line screen, 48 h
DU-145 prostate = system: DU-145 prostate
NCI-H522 lung = system: NCI-H522 lung
OVCAR-3 ovarian = system: OVCAR-3 ovarian
SN12C renal = system: SN12C renal
HT29 colon = system: HT29 colon
OVCAR-8 ovarian = system: OVCAR-8 ovarian
CAKI-1 renal = system: CAKI-1 renal
OVCAR-4 ovarian = system: OVCAR-4 ovarian
M14 melanoma = system: M14 melanoma
MALME-3M melanoma = system: MALME-3M melanoma

SMILES	GI50 (DU-145 prostate)	TGI (DU-145 prostate)	GI50 (NCI-H522 lung)	TGI (NCI-H522 lung)	GI50 (OVCAR-3 ovarian)	TGI (OVCAR-3 ovarian)	GI50 (SN12C renal)	TGI (SN12C renal)	GI50 (HT29 colon)	TGI (HT29 colon)	GI50 (OVCAR-8 ovarian)	TGI (OVCAR-8 ovarian)	GI50 (CAKI-1 renal)	TGI (CAKI-1 renal)	GI50 (OVCAR-4 ovarian)	TGI (OVCAR-4 ovarian)	GI50 (M14 melanoma)	TGI (M14 melanoma)	GI50 (MALME-3M melanoma)	TGI (MALME-3M melanoma)
COc1cc2c(cc1OCCCCCOc1cc(-c3ccc(F)cc3)nc(C)n1)N=C[C@@H]1CCCN1C2=O	> 39.8 µM	> 87.4 µM	> 20.5 µM	> 42.3 µM	> 38.2 µM	> 58.3 µM	> 44.2 µM	> 71.2 µM	> 45.1 µM	> 100 µM	> 37.3 µM	> 54.7 µM	> 41.7 µM	> 66.9 µM	> 40.6 µM	> 79.7 µM	> 45.5 µM	> 65.7 µM	> 48.3 µM	> 68.7 µM
Cc1cccc2c3c(sc12)C(c1ccc(Cl)cc1)C(C#N)=C(/N=C/c1ccc(Cl)cc1)O3 (stereo not given)	0.485 µM	> 100 µM	0.304 µM	3.12 µM	0.393 µM	6.81 µM	0.623 µM	> 100 µM	0.388 µM	> 52 µM	0.46 µM	> 100 µM	0.265 µM	20.7 µM	2.17 µM	> 100 µM	0.308 µM	> 52.6 µM	0.595 µM	> 100 µM
Cc1cccc(C(C)O)n1 (stereo not given)	–	> 100 µM	–	> 100 µM	–	> 100 µM	–	> 100 µM	–	> 100 µM	–	> 100 µM	–	> 100 µM	–	> 100 µM	–	> 100 µM	–	> 100 µM
COc1ccc2c(c1)[nH]c(=O)c1c3cccnc3cn21	0.0365 µM	> 100 µM	0.0222 µM	0.0682 µM	0.0251 µM	0.0588 µM	0.0802 µM	> 100 µM	0.03 µM	0.168 µM	0.0514 µM	21.2 µM	0.0405 µM	14.7 µM	0.0735 µM	> 100 µM	0.0265 µM	19.9 µM	0.0437 µM	18.3 µM
FC(F)(F)c1ccc2c(c1)N(CCCN1CCN(C3CC3)CC1)c1ccccc1S2	13.8 µM	28.6 µM	11.5 µM	25.8 µM	7.11 µM	20.3 µM	13.3 µM	28.1 µM	3.48 µM	13.8 µM	13 µM	26.8 µM	3.6 µM	16.1 µM	11.1 µM	23.7 µM	15.1 µM	30.7 µM	14 µM	31.7 µM
C[C@]12CC[C@H]3[C@@H](CCC4=CC(=O)CC[C@@H]43)[C@@H]1CC[C@@H]2OC1(O)C(=O)c2ccccc2C1=O	–	66.7 µM	–	35.9 µM	–	> 100 µM	–	34.4 µM	–	> 100 µM	–	> 100 µM	–	> 100 µM	–	> 100 µM	–	> 100 µM	–	> 100 µM
Clc1nc(Cl)c2ncn(C/C=C\Cn3cnc4c(Cl)nc(Cl)nc43)c2n1	1.54 µM	2.89 µM	1.76 µM	4.02 µM	1.37 µM	2.69 µM	3.01 µM	9.71 µM	1.69 µM	3.35 µM	2.02 µM	6.39 µM	1.16 µM	2.41 µM	1.79 µM	3.26 µM	2.15 µM	4.19 µM	2.34 µM	4.26 µM
